Measured values taken from patent US10392398B2, “Inhibitors of Late SV40 Factor (LSF) as cancer chemotherapeutics” (TRUSTEES OF BOSTON UNIVERSITY, priority 2010, dated 2019).
Where two headings read alike, the source gives them in different places.

Assays:
QGY-7703 cells = assay: Cell viability GI50 (MTS), QGY-7703; format: cell-based; conditions: Homo sapiens
Procedure: QGY-7703 and A549 cells were cultured at 37° C. in 5% CO2 in DMEM (Dulbecco's modification of Eagle's Medium; Corning) supplemented with 10% Fetal Bovine Serum (FBS; Invitrogen). NIH-3T3 cells were cultured at 37° C. in 5% CO2 in DMEM supplemented with 10% Fetal Calf Serum (FCS; Atlanta Biologicals). For cell viability assays, 1,500 cells were seeded in 96-well plates and treated with FQI-34 or vehicle (DMSO) at appropriate concentrations (DMSO at 1%) after 20 hours. After 72-hour incubation with compound or vehicle, cell growth was assessed via the Promega CellTiter 96® AQueous One Solution Cell Proliferation Assay, a colorimetric method to determine the number of viable cells. 20 μL of the CellTiter 96® AQueous One Solution Reagent was added directly into cultured wells and incubated for one hour, after which the absorbance at 490 nm was read with a 96-well plate reader (Opys MR Microplate Reader). The CellTiter 96® AQueous One Solution contains an MTS tetrazolium compound which is bioreduced by cells into a colored formazan product that is soluble in tissue culture medium. The quantity of formazan product as measured by absorbance is directly proportional to the number of living cells in culture. GI50 values were determined from plots of the percentage of compound-treated cell growth to vehicle cell growth vs. compound concentration (GraphPad Prism; non-linear regression 4-parameter curve fit with variable slope).

LBP1a/b = assay: Cellular Thermal Shift Assay (CETSA), LBP1a/b; format: binding; conditions: QGY-7703 lysate, 500 μM
Procedure: (§1) Drug-target engagement was assessed using CETSA as described by Molina et al. (Monitoring Drug-Target Engagement in Cells and Tissues Using Cellular Thermal Shift Assay. Science (2013) 341, 84-87). QGY-7703 cells were cultured at 37° C. in 5% CO2 in DMEM (Dulbecco's modification of Eagle's Medium; Corning) supplemented with 10% Fetal Bovine Serum (FBS; Invitrogen). Cells were seeded into 10 cm plates and allowed to reach 60-80% confluency. After trypsinization (0.05% Trypsin-EDTA, Invitrogen), cell pellet was washed twice with ice-cold 1×PBS (137 mM NaCl, 2.7 mM KCl, 10 mM Na2HPO4, 2 mM KH2PO4, pH 7.2). Cell pellet was lysed by addition of 200 μL freshly prepared ice-cold RIPA buffer (10 mM Tris-Cl pH 8.0, 1 mM EDTA, 0.5 mM EGTA, 1% Triton X-100, 0.1% sodium deoxycholate, 0.1% SDS, 140 mM NaCl) supplemented with 1 mM Pefabloc (Sigma-Aldrich), and flash frozen in liquid nitrogen and thawed for a total of three cycles. Cell lysate was centrifuged at 20,000×g for 20 minutes to clarify. Supernatant was either treated immediately or saved at −80° C. for future use. […]
(§2) Immunoblots were quantified using Image J and graphed using GraphPad PRISM. Area-under-the-curve (AUC) for the quantified western blots were calculated with GraphPad PRISM and non-parametric t-test was calculated to determine statistical significance between the curves. […]

GRHL1 = target: T1, GRHL1 (Homo sapiens, UniProt Q9NZI5); assay: Cellular Thermal Shift Assay (CETSA), GRHL1; format: binding; conditions: QGY-7703 lysate, 500 μM
T1 construct: endogenous in cells; host or cells: QGY-7703 cell lysate
T1 sequence (Q9NZI5 1-618): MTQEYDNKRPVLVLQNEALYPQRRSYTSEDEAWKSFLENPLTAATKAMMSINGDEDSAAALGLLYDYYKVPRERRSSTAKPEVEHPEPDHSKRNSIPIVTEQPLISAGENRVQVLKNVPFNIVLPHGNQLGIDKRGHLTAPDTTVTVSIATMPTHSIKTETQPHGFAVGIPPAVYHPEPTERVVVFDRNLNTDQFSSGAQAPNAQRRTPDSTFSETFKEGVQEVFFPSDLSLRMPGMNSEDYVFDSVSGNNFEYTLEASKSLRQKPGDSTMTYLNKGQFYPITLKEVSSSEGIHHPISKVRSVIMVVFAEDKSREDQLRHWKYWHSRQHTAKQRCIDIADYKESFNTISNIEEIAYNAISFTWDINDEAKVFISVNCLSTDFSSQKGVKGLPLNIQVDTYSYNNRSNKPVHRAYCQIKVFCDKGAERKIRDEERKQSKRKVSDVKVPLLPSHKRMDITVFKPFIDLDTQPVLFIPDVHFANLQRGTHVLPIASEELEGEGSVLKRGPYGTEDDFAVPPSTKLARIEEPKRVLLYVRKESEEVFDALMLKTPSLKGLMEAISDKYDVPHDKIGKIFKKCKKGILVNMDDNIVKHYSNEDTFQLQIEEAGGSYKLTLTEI
Procedure: as §1, §2

HepG3 cells = assay: TUNEL apoptosis assay, HepG3; format: cell-based; conditions: same conditions as QGY-7703
Procedure: HCC cells were plated 24 h prior to incubation with FQI1. At the indicated time points, cells were analyzed using the FragEL™ DNA fragmentation kit (Calbiochem) according to the manufacturer's protocol. Flow cytometry was performed using a FACS caliber (Becton Dickinson) and analyzed with Cell Quest software.

[1] = tested on: primary mouse hepatocytes; assay: Primary mouse hepatocytes, growth and toxicity; format: cell-based
Source text: Averages with SEM of three experiments are shown. *P<0.05, by one-tailed t-test. […] The cells were imaged separately for TUNEL-positivity and DNA at the top. Below: Merged images; green for TUNEL (Terminal deoxynucleotidyl transferase dUTP nick end labeling) staining, blue for DAPI (4′,6-diamidino-2-phenylindole) staining. […] Binucleate cells are common for adult hepatocytes.

cancer cell lines = assay: Inhibition of growth of cancer cell lines in vitro (FIGS. 9 and 10); format: cell-based; conditions: 0.2-33 μM
Procedure: FIG. 9A-9K show the results of inhibition of growth of cancer cell lines in vitro by FQI1 (Formula (IV)). The effect of inhibition of cell growth (represented as a fraction of 1) of increasing concentrations of FQI1 between 0.2-33 μM is shown.
The effect of inhibition of cell growth (represented as a fraction of 1) of increasing concentrations of FQI2 between 0.2-33 μM is shown.

Compound: CCOc1cc(N(C)C)ccc1C1CC(=O)Nc2cc3c(cc21)OCO3 (centres unmarked) [FQI-34, 8-(4-(dimethylamino)-2-ethoxyphenyl)-7,8-dihydro-[1,3]dioxolo[4,5-g]quinolin-6(5H)-one]
- GI50 (QGY-7703 cells; 72-hour incubation, MTS, read-out: GI50 in QGY-7703 cells): 260 nM
- GI50 (QGY-7703 cells; Table 5, read-out: QGY-7703 GI50): 260 nM
- GI50 (QGY-7703 cells; Table 8, read-out: QGY-7703 GI50): 260 nM
- binding to LBP1a/b by CETSA (LBP1a/b): directly binds
- binding to GRHL1 by CETSA (GRHL1): does not bind

Compound: CCOc1ccccc1C1CC(=O)Nc2cc3c(cc21)OCO3 (racemic) [FQI1, 8-(2-ethoxyphenyl)-7,8-dihydro-[1,3]dioxolo[4,5-g]quinolin-6(5H)-one]
- TUNEL positivity of HepG3 cells (HepG3 cells): not TUNEL-positive
- growth consequences or toxicity in primary non-dividing mouse hepatocytes [1]: No growth consequences or toxicity
- growth of a variety of cancers, in vitro cell assay (cancer cell lines): inhibit the growth of a variety of cancers
